Among the data in ChEMBL document CHEMBL1921734 (Bioorg Med Chem, 2011) are IC50 and Activity values, retold here.

Experiment [1] deals with T1, Cytochrome P450 3A4 (Homo sapiens, UniProt P08684). The experiment in a line: Inhibition of CYP3A4. Type of experiment: ADME.
Experiment [2] concerns the target T2, Steroid 17-alpha-hydroxylase/17,20 lyase (Homo sapiens, UniProt P05093).
T2 sequence (P05093 whole entry): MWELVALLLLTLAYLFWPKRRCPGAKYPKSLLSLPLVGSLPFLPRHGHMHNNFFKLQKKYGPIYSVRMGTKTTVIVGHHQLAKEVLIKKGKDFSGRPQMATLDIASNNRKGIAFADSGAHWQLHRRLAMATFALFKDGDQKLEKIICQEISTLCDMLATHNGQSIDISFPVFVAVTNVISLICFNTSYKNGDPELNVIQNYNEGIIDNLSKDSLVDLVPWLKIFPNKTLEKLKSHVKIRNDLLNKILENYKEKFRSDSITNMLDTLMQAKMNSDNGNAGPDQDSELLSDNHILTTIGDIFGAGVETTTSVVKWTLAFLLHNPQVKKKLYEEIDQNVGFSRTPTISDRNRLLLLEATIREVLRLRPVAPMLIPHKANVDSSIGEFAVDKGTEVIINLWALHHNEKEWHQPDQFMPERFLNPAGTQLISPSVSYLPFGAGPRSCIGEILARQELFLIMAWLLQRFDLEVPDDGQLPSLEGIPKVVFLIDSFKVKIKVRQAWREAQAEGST
Briefly: Inhibition of 17,20-lyase activity of human CYP17A1.

Experiment [3] deals with T3, Steroid 17-alpha-hydroxylase/17,20 lyase (Rattus norvegicus, UniProt P11715).
T3 sequence (P11715 whole entry): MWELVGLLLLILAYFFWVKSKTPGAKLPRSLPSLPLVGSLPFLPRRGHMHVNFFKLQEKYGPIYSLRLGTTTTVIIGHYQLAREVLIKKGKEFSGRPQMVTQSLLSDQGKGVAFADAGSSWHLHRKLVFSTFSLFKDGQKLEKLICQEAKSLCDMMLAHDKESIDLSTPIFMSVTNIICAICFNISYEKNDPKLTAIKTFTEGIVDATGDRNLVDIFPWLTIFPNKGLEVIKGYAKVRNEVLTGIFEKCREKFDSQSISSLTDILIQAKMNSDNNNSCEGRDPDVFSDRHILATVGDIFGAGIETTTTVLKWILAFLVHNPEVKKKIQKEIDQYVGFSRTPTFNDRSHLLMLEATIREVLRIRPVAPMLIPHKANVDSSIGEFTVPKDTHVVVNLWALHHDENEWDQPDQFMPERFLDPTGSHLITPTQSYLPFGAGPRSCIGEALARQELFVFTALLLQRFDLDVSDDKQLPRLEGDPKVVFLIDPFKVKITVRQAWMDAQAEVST
The experiment in a line: Inhibition of 17,20-lyase activity of Sprague-Dawley rat testicular microsomal CYP17A1 using [1,2-3H]-17a-hydroxyprogesterone as substrate after 15 mins by TLC analysis. The arrangement: species or system Testis.

Experiment [4] has as its system Cynomolgus monkey. Briefly: Reduction of serum DHEA level in cynomolgus monkey at 1 mg/kg, po after 8 hrs by radioimmunoassay (reference value: 25 +/- 6.2%). The arrangement: scale not given: the % may be the effect or the level left. Type of experiment: functional, Macaca fascicularis.
For experiment [5], the system named is Cynomolgus monkey. Briefly: Reduction of serum testosterone level in cynomolgus monkey at 1 mg/kg, po after 8 hrs by radioimmunoassay (reference value: 296 +/- 277%). The experiment is classed as functional, Macaca fascicularis. The arrangement: scale not given: the % may be the effect or the level left.
The nature of experiment [6]: Inhibition of Sprague-Dawley rat adrenal gland 11-hydroxylase using [1,2-3H]-hydroxy-11-deoxycorticosterone as substrate after 30 mins by TLC analysis. The experiment is classed as tissue-based.
In experiment [7] the target is T1, Cytochrome P450 3A4. The experiment in a line: Inhibition of recombinant human CYP3A4 assessed as conversion of testosterone into 6-hydroxytestosterone after 30 mins by HPLC analysis. Type of experiment: ADME.
Experiment [8] has as its target T2, Steroid 17-alpha-hydroxylase/17,20 lyase. Briefly: Inhibition of 17,20-lyase of recombinant human CYP17A1 using [1,2-3H]-17a-hydroxypregnenolone as substrate after 15 mins by TLC analysis.
For the next experiment, the target named is T4, Cytochrome P450 2C8 (Homo sapiens, UniProt P10632).
T4 sequence (P10632 whole entry): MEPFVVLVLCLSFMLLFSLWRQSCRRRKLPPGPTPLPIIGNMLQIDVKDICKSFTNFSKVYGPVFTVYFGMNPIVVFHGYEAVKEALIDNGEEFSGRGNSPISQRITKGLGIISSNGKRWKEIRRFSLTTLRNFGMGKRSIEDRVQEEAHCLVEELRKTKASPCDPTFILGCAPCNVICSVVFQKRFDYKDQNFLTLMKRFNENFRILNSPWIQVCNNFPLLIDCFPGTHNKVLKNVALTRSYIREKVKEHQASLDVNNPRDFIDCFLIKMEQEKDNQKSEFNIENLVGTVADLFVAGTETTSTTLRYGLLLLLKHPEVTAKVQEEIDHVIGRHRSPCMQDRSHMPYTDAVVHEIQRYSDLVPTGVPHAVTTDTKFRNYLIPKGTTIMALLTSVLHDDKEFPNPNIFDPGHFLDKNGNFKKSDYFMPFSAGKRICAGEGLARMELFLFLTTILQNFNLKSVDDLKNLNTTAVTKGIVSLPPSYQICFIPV
Briefly: Inhibition of human B-lymphoblastoid cell microsomal CYP2C8 assessed as Tolbutamide hydroxylation preincubated for 5 mins with substrate. Type of experiment: ADME.

The subject of experiment [9] is Cynomolgus monkey. The experiment in a line: Reduction of serum testosterone level in cynomolgus monkey at 1 mg/kg, po after 2 hrs by radioimmunoassay (reference value: 90 +/- 16.6%). The arrangement: scale not given: the % may be the effect or the level left. The experiment is classed as functional, Macaca fascicularis.
In experiment [10] the test system is Cynomolgus monkey. The experiment in a line: Reduction of serum DHEA level in cynomolgus monkey at 1 mg/kg, po after 8 hrs by radioimmunoassay (reference value: 54 +/- 25%). Type of experiment: functional, Macaca fascicularis. The arrangement: scale not given: the % may be the effect or the level left.
The subject of experiment [11] is Cynomolgus monkey. The experiment in a line: Reduction of serum testosterone level in cynomolgus monkey at 1 mg/kg, po after 8 hrs by radioimmunoassay (reference value: 101 +/- 54%). The experiment is classed as functional, Macaca fascicularis. Further details: scale not given: the % may be the effect or the level left.
Experiment [12] has as its system Cynomolgus monkey. Briefly: Reduction of serum testosterone level in cynomolgus monkey at 1 mg/kg, po after 5 hrs by radioimmunoassay (reference value: 63 +/- 19.2%). The experiment is classed as functional, Macaca fascicularis. Further details: scale not given: the % may be the effect or the level left.
The target in the next experiment is T5, Cytochrome P450 1A2 (Homo sapiens, UniProt P05177).
T5 sequence (P05177 whole entry): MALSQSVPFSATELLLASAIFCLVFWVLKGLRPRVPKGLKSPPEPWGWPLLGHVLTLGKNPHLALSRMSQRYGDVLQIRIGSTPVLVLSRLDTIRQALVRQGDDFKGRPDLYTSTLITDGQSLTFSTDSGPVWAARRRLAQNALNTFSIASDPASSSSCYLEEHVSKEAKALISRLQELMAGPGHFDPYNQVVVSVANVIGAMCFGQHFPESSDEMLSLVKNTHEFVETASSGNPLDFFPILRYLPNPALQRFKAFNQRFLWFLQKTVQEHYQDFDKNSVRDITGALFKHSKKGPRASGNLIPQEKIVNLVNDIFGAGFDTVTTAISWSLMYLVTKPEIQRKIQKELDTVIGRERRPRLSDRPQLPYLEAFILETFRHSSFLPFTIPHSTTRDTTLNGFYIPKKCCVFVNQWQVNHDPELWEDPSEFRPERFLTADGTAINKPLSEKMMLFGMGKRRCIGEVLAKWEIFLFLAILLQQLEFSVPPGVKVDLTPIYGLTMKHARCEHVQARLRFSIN
Briefly: Inhibition of human B-lymphoblastoid cell microsomal CYP1A2 assessed as 7-ethoxyresorufin O-deethylation preincubated for 5 mins with substrate. Type of experiment: ADME.

Experiment [13] has as its system Cynomolgus monkey. The experiment in a line: Reduction of serum DHEA level in cynomolgus monkey at 1 mg/kg, po after 10 hrs by radioimmunoassay (reference value: 7.2 +/- 0.99%). Type of experiment: functional, Macaca fascicularis. The arrangement: scale not given: the % may be the effect or the level left.
Experiment [14] has as its system Cynomolgus monkey. Briefly: Reduction of serum DHEA level in cynomolgus monkey at 1 mg/kg, po after 5 hrs by radioimmunoassay (reference value: 88.6 +/- 4.4%). The arrangement: scale not given: the % may be the effect or the level left. The experiment is classed as functional, Macaca fascicularis.
In experiment [15] the test system is Cynomolgus monkey. The experiment in a line: Reduction of serum testosterone level in cynomolgus monkey at 1 mg/kg, po after 10 hrs by radioimmunoassay (reference value: 269.8 +/- 94.5%). The experiment is classed as functional, Macaca fascicularis. The arrangement: scale not given: the % may be the effect or the level left.
A further experiment deals with Cytochrome P450 2D6 (Homo sapiens, UniProt P10635). Briefly: Inhibition of human B-lymphoblastoid cell microsomal CYP2D6 assessed as (+)-bufuralol 1'-hydroxylation preincubated for 5 mins with substrate. The experiment is classed as ADME.
Experiment [16] relates to Cynomolgus monkey. The experiment in a line: Reduction of serum DHEA level in cynomolgus monkey at 1 mg/kg, po after 2 hrs by radioimmunoassay (reference value: 97.9 +/- 22.3%). Type of experiment: functional, Macaca fascicularis. Further details: scale not given: the % may be the effect or the level left.

Usually IC50 stands for the concentration that gives 50% inhibition.

T1 sequence (P08684 whole entry): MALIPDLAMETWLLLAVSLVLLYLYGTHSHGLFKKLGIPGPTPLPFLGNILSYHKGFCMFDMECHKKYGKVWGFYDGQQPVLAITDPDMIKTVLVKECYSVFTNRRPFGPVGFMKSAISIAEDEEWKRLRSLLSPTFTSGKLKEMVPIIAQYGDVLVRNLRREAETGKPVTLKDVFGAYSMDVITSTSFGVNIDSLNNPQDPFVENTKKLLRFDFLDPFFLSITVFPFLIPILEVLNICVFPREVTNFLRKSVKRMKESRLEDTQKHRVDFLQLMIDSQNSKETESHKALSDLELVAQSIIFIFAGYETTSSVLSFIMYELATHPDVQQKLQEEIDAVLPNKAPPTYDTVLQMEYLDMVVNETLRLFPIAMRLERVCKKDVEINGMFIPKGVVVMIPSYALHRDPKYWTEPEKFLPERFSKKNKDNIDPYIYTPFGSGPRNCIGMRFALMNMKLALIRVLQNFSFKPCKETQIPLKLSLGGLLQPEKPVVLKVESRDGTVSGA
Sequence of Cytochrome P450 2D6 (P10635 whole entry): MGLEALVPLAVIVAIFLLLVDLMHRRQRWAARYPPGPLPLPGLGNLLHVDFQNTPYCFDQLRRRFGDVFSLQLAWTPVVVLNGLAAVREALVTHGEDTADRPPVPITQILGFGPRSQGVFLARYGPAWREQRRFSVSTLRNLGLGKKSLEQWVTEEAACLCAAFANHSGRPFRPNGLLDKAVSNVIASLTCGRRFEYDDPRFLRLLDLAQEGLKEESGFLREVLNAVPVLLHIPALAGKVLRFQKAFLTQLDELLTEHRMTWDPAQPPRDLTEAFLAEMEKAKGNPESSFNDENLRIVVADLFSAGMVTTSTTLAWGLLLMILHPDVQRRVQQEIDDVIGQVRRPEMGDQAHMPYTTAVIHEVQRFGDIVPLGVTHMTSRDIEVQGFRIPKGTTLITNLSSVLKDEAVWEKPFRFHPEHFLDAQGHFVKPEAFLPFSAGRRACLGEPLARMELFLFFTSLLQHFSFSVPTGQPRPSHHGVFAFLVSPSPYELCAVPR

As to `CNC(=O)c1ccc2cc([C@](O)(c3c[nH]cn3)C(C)C)ccc2c1`, the figures for the concentration for half-maximal inhibition (IC50) (against Cytochrome P450 3A4 [1]; in experiment [2]) were 7800 nM and 5.5 nM, respectively.
With `CNC(=O)c1ccc2cc([C@]3(O)CCn4cncc43)ccc2c1`, the IC50 in [3] is 180 nM; in experiment [6], above 1000 nM. Also, the Activity in the experiment on Cynomolgus monkey [4] is 91%; with Cynomolgus monkey [5] it was 258%.
In [6], `CNC(=O)c1ccc2cc(C(O)(c3c[nH]cn3)C(C)C)ccc2c1` (racemic) returned an IC50 above 1000 nM.
Still for that read-out and setting: the figure for `CNC(=O)c1ccc2cc(C3(O)CCn4cncc43)ccc2c1` (racemic) is above 1000 nM.
Turning to `CNC(=O)c1ccc2cc(C3(O)c4cncn4CC3(C)C)ccc2c1` (racemic), the half-inhibitory concentration (IC50) in [3] turned out to be 110 nM; at Cytochrome P450 3A4 [7] it was 3200 nM; in experiment [6], 520 nM; in experiment [8], 88 nM.
In the case of `CNC(=O)c1ccc2cc(C3CCn4cncc43)ccc2c1` (racemic), the IC50 in experiment [3] was 15 nM; on Cytochrome P450 3A4 [7], below 1000 nM; in experiment [6], 290 nM; in [8], 13 nM.
As to `CNC(=O)c1ccc2cc(C(C)(O)c3cncn3C)ccc2c1` (racemic), the IC50 was above 1000 nM in experiment [3], 6900 nM at Cytochrome P450 3A4 [7], above 1000 nM in [6] and 410 nM in experiment [8].
As for `NC(=O)c1ccc2cc(C3(O)CCn4cncc43)ccc2c1` (racemic), the half-maximal inhibitory concentration (IC50) in experiment [3] is 24 nM; at Cytochrome P450 3A4 [7], above 10000 nM; in experiment [6], 100 nM; in experiment [8], 29 nM.
The like results for `CCNC(=O)c1ccc2cc(C3(O)CCn4cncc43)ccc2c1` (racemic) were, in that order, 110 nM, above 10000 nM, above 1000 nM and 190 nM.
The like results for `O=C(NC1CC1)c1ccc2cc(C3(O)CCn4cncc43)ccc2c1` (racemic) were, in that order, 100 nM, above 10000 nM, above 1000 nM and 290 nM.
As for `CC(C)NC(=O)c1ccc2cc(C3(O)CCn4cncc43)ccc2c1` (racemic), the half-maximal inhibitory concentration (IC50) in experiment [3] is 160 nM; on Cytochrome P450 3A4 [7] it was above 10000 nM; in [6], above 1000 nM; in experiment [8], 400 nM.
Consider `CNC(=O)c1ccc2cc([C@@]3(O)CCn4cncc43)ccc2c1` [ORTERONEL], for which the IC50 is 48 nM in experiment [3]; above 30000 nM on Cytochrome P450 2C8; 28000 nM on Cytochrome P450 1A2; above 1000 nM in experiment [6]; above 30000 nM at Cytochrome P450 2D6. Besides, the Activity in the experiment on Cynomolgus monkey [9] was found to be 75.9%; in the experiment with Cynomolgus monkey [10], 12%; in the experiment with Cynomolgus monkey [11], 30%; in the experiment with Cynomolgus monkey [12] it was 14.2%; in the experiment with Cynomolgus monkey [13] it was 7.6%; with Cynomolgus monkey [14], 32.8%. The Activity in the experiment on Cynomolgus monkey [15] was found to be 55.6%; in the experiment with Cynomolgus monkey [16] it was 61.1%.
